Entries after “also recorded” stand apart in the source; their conditions may differ.
Legend:
[1] = system: HEK293T cells expressing NiV F and G; assay type: cell-based
[2] = system: pseudotyped NiV/VSV virus (pNiV)
NiV = settings: cited from earlier work
[3] = system: vesicular stomatitis virus (VSV); assay type: cell-based
norovirus = test: Plaque assay for norovirus infection in RAW 264.7 cells; assay type: cell-based; settings: non-enveloped virus
Description: RAW 264.7 (ATCC) cells were infected with serial dilutions of norovirus for 1 h. 3% wt/vol Seaplaque agarose in 2×MEM media was placed as a first overlay. Then, cells were incubated for 48 h when plaques were visible and counted.

HSV-1 KOS = test: Plaque assay for HSV-1 infections; assay type: cell-based; settings: virions treated with XM-01 before infection, various concentrations
Description: At 3 h post-inoculation, the medium was removed. At 18 to 24 h post-infection, the culture medium was removed, and cells were fixed with an ice-cold methanol-acetone solution (2:1 ratio) for 20 min at […] and air-dried. Virus titers were determined by immunoperoxidase staining with anti-HSV polyclonal antibody HR50 (Fitzgerald Industries, Concord, MA) (Roller et al., “Structure-Function Analysis of Herpes Simplex Virus Glycoprotein B with Fusion-from-without Activity,” Virology 382:207-216 (2008), which is hereby incorporated by reference in its entirety).

NiV G glycoprotein = NiV G glycoprotein (Nipah virus, UniProt Q9IH62)
Sequence of NiV G glycoprotein (Q9IH62 whole entry, looked up): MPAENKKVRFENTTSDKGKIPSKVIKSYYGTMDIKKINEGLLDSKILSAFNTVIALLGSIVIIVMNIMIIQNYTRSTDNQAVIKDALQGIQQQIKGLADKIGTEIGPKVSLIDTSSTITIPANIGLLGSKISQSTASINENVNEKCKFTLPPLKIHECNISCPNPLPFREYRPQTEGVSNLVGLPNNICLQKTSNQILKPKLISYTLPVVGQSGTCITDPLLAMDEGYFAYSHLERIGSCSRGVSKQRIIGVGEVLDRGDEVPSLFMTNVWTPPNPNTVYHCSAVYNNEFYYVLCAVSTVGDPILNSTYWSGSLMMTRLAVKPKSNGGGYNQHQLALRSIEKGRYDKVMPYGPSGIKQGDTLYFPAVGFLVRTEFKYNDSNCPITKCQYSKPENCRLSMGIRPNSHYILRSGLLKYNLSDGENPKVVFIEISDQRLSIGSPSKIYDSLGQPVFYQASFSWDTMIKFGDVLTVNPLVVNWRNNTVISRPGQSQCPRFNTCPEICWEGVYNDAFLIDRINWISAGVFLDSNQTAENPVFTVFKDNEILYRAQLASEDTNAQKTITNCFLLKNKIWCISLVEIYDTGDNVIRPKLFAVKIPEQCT

NiV F protein = NiV F protein (Nipah virus, UniProt Q9IH63)
Sequence of NiV F protein (Q9IH63 110-546 limits assumed): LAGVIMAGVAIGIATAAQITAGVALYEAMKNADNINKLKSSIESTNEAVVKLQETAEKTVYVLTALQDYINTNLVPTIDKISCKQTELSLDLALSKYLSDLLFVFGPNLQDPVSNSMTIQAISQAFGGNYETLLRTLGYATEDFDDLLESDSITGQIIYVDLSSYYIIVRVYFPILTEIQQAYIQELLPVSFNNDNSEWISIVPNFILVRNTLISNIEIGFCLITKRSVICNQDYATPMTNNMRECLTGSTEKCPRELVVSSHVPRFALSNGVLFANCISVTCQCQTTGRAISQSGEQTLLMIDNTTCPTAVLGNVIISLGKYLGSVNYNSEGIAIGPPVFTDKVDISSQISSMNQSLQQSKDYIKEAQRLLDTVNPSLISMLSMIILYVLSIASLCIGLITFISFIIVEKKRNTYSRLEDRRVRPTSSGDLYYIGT
Sequence of NiV F protein (Q9IH63 27-109 limits assumed): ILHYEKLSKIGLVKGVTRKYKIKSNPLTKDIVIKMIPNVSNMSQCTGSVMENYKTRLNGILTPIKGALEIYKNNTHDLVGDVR

[4] = system: NiV F and G glycoproteins; assay type: cell-based; settings: XM-01 treatment
[5] = system: Human respiratory syncytial virus (RSV A2 strain); assay type: cell-based
[6] = system: SARS-CoV-2 (isolate USA-WA1/2020); assay type: cell-based
[7] = molecular target: NiV F and G on pNiV virions (Nipah virus, UniProt Q9IH62+Q9IH63)
[8] = system: bovine rotavirus strain NCDV; test: Rotavirus infection assay in MA104 cells; assay type: cell-based; settings: non-enveloped virus
Description: 18β-glycyrrhetinic acid (GRA) (Sigma-Aldrich) stock solutions were prepared to a concentration of 100 mg/mL in DMSO and aliquots were stored at −80° C. The stock solutions were diluted to working concentrations in DMEM without FBS. For the control compounds, MA104 (ATCC) cells were treated for 6 h with 25 μg/mL GRA. The viability was measured with the Promega CellTiterGlo Assay according to the manufacturer's protocol, with digitonin as the control for 100% cytotoxicity. Data shown are representative of two experiments, with each concentration tested in triplicate in each experiment. Error bars indicate SEM. […] Mock-infected wells received 50 μl of 0% M199 vehicle media. 50 μl of fresh 2× control and experimental compounds were added and at 18 h post-infection, the cells were fixed for 10 min with 80% acetone (Hardy et al., “18 Beta-glycyrrhetinic Acid Inhibits Rotavirus Replication in Culture,” Virol. J. 9:96 (2012), which is hereby incorporated by reference in its entirety).

pNiV viral membranes = system: pNiV viral membranes; parameters: species or system NiV
[9] = system: A/California/04/2009 (H1N1); assay type: cell-based, influenza virus
[10] = system: Human Cytomegalovirus (HCMV); assay type: cell-based

In the case of C=CCN1C(=O)/C(=C/c2ccc(-c3ccccc3)o2)SC1=S [LJ001, reference compound], the “cell-cell fusion (syncytia)” value [1] is reported as “affect cell-cell fusion” and the “antiviral activity in the absence of light” value [2] is reported as “severely reduced in the absence of light”.
For [Na+].[SH-] [NaHS], the “antiviral effects against NiV” value (NiV) is listed as “known antiviral effects against NiV, although at high (millimolar) concentrations”.
With COC(=O)C(CSSC(=O)c1ccccc1)NC(=O)c1ccccc1 (stereo not drawn) [XM-01] the “inhibition of VSV infection” value [3] was “inhibited by XM-01 in a concentration-dependent fashion”, the “inhibition of norovirus entry” value (norovirus) was “not inhibited” and the “inhibition of HSV-1 infection” value (HSV-1 KOS) was “inhibited by XM-01 in a concentration-dependent fashion”. The “cell-cell membrane fusion (syncytia)” value [1] was “significantly reduced levels of cell-cell membrane fusion”, the ephrinB2/G binding (NiV G glycoprotein) was “did not interfere with the receptor-binding ability of the G glycoprotein” and the F-triggering (NiV F protein) was “not decreased”. For the same compound, the “cell surface expression of F and G glycoproteins” value [4] was “not be significantly affected”, the “inhibition of RSV infection” value [5] was “inhibited by XM-01 in a concentration-dependent fashion” and the “inactivation of SARS-CoV-2” value [6] was “complete inactivation”. For the same compound, the “inhibition of plaque formation of SARS-CoV2” value [6] was “effective to inhibit plaque formation”, the “antibody binding to F or G (conformation)” value [7] was “no significant changes in antibody binding to either glycoprotein” and the EC50 [2] was roughly 1 µM. For the same compound, the “antiviral activity in the absence of light” value [2] was “did not need light to inhibit pNiV infection”, the “difference between the inhibitory and cytotoxic concentrations” value [2] was ~ 3 log and the “infectivity of treated virions” value [2] was “highly inhibited”. The “inhibition of infection post-entry (time of XM-01 addition)” value [2] was “completely incapable of inhibiting the infection”, the “viral infection after pre-treatment of cells” value [2] was “did not significantly reduce viral infection” and the “inhibition of rotavirus entry” value [8] was “not inhibited”. For the same compound, the “viral membrane appearance by electron microscopy” value (pNiV viral membranes) was “compromised membranes”, the EC50 [9] was “high nanomolar to low micromolar range” and the “inhibition of influenza A/California/04/2009 infection” value [9] was “inhibited by XM-01 in a concentration-dependent fashion; also recorded: significantly inhibited”. For the same compound, the neutralization of influenza [9] was “complete neutralization”, the CC50 (Vero cells) was roughly 1000 µM and the cytotoxicity (Vero cells) was “little to no cytotoxicity”. For the same compound, the cytotoxicity levels (Vero cells) was “low levels of cytotoxicity” and the “inhibition of HCMV infection” value [10] was “inhibited by XM-01 in a concentration-dependent fashion”.
With CC(=O)NC(CSSC(=O)c1ccccc1)C(=O)NCc1ccccc1 (stereo not drawn) [XM-02] the “infectivity of pNiV in Vero cells” value [2] was “best inhibited pNiV infections”, the “inhibitory properties against pNiV” value [2] was “inhibitory properties” and the cytotoxicity levels (Vero cells) was “low levels of cytotoxicity”.
In the case of COC(=O)C(CSSC(C)=O)NC(=O)c1ccccc1 (stereo not drawn) [XM-03], the “infectivity of pNiV in Vero cells” value [2] is reported as “best inhibited pNiV infections”, the “inhibitory properties against pNiV” value [2] is reported as “inhibitory properties” and the cytotoxicity levels (Vero cells) is reported as “low levels of cytotoxicity”.
For CCCCNC(=O)C(CCSSC(=O)c1ccccc1)NC(=O)c1ccccc1 (stereo not drawn) [XM-06], the “infectivity of pNiV in Vero cells” value [2] was “best inhibited pNiV infections”.
With COC(=O)C(CSC(=O)c1ccccc1)NC(=O)c1ccccc1 (stereo not drawn) [XM-10] the “inhibitory properties against pNiV” value [2] was “inhibitory properties” and the cytotoxicity levels (Vero cells) was “low levels of cytotoxicity”.
In the case of COC(=O)C(CSC(C)=O)NC(=O)c1ccccc1 (stereo not drawn) [XM-11], the “inhibitory properties against pNiV” value [2] is reported as “inhibitory properties” and the cytotoxicity levels (Vero cells) is reported as “low levels of cytotoxicity”.
In the case of O=C(SSC(=O)c1ccccc1)c1ccccc1 [XM-12], the “infectivity of pNiV in Vero cells” value [2] is reported as “best inhibited pNiV infections”.
With C=O [formalin, reference compound] the “inactivation of SARS-CoV-2” value [6] was “complete inactivation”.

— US12728161B2 (priority 2019, dated 2026)
